Laboratory results reported in patent US7951802B2, “Use of 7-azaindoles in the inhibition of c-Jun N-terminal kinase” (Eisai R&D Management Co., Ltd., priority 2007, dated 2011).

Biological target: JNK3 (Homo sapiens, UniProt P53779)
Test: JNK3 SPA assay (phosphorylation of GST-c-Jun)
Assay type: biochemical
Settings: 3.33 μM ATP, GST-c-Jun substrate, read-out: IC50 against JNK3
Method: JNK1, JNK2, JNK3—SPA Assay
JNK1, JNK2, JNK3—SPA Assay • 1. Compound is dissolved in DMSO to a convenient concentration and this is diluted in 10% DMSO to a five times concentrate of the desired starting concentration (frequently 1:100). • 2. 10 μl of 500 mM EDTA is added to alternative wells of the Opti-plate row, which will receive kinase reaction plus DMSO. This creates the negative control. • 3. For the JNK2 and JNK3 assay, compounds are prepared in six 2-fold dilutions with water and each concentration is tested in duplicate. For the JNK1 assay compounds are prepared in four 5-fold dilutions with water which are tested in triplicate. Controls are treated identically. • 4. 20 μl per well of each compound concentration is transferred to an Opti-plate, in duplicate. • 5. 30 μl (JNK2/3 SPA) or 50 μl (JNK1 SPA) of substrate solution (25 mM HEPES pH 7.5, 10 mM magnesium acetate with 3.33 μM ATP (JNK2/3) or 2 μM ATP (JNK1), approximately 7.5 kBq [γ-^33P] ATP, GST-c-Jun, in water) is added to each well. • 6. 50 μl (JNK2/3 SPA) or 30 μl (JNK1 SPA) of kinase solution (JNK in 25 mM HEPES pH 7.5, 10 mM Mg Acetate) is added to each well.
• 7. The plate is incubated for 30 minutes at room temperature. • 8. 100 μl of bead/stop solution is added to each well (5 mg/ml glutathione-PVT-SPA beads, 40 mM ATP in PBS). • 9. Plates are sealed and incubated for 30 minutes at room temperature, centrifuged for 10 minutes at 2500 g and counted. • 10. The IC50 values are calculated as the concentration of the compound being tested at which the phosphorylation of c-Jun is decreased to 50% of the control value.

Chain of JNK3 (P53779 whole entry, species assumed): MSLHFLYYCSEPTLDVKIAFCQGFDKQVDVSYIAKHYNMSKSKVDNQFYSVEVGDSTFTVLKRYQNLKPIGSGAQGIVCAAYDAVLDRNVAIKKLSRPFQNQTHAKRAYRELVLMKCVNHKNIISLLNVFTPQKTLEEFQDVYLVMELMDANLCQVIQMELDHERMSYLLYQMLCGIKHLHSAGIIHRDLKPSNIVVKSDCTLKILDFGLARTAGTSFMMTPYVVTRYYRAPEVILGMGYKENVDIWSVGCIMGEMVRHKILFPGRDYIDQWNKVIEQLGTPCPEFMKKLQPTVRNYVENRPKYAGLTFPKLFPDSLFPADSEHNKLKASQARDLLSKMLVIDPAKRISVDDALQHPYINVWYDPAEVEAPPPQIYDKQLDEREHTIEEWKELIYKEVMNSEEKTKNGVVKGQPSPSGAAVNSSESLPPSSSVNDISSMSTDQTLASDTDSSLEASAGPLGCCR

Row | IC50 [µM] | Structure (SMILES)
1 | 0.692 | FC(F)(F)c1csc(-c2c[nH]c3ncc([C@H]4CC[C@H](N5CCCC5)CC4)cc23)n1 [Compound I-84, 2-(5-((1r,4r)-4-(pyrrolidin-1-yl)cyclohexyl)-1H-pyrrolo[2,3-b]pyridin-3-yl)-4-(trifluoromethyl)thiazole]
2 | 0.105 | CC1CC=C(c2cnc3[nH]cc(-c4csc(C(=O)N5CCN(C)CC5)n4)c3c2)CC1 (stereo not shown) [Compound I-14, {4-[5-(4-Methyl-cyclohex-1-enyl)-1H-pyrrolo[2,3-b]pyridin-3-yl]-thiazol-2-yl}-(4-methyl-piperazin-1-yl)-methanone]
3 | 1.29 | c1sc(N2CCCC2)nc1-c1c[nH]c2ncc([C@H]3CC[C@H](N4CCCOCC4)CC3)cc12 [Compound I-122, 5-[trans-4-(1,4-oxazepan-4-yl)cyclohexyl]-3-(2-pyrrolidin-1-yl-1,3-thiazol-4-yl)-1H-pyrrolo[2,3-b]pyridine]
4 | 0.891 | COc1nc(-c2c[nH]c3ncc(C4CCCCC4)cc23)cs1 [Compound I-50, 4-(5-cyclohexyl-1H-pyrrolo[2,3-b]pyridin-3-yl)-2-methoxythiazole]
5 | 0.871 | Cc1cnc(-c2c[nH]c3ncc([C@H]4CC[C@H](N5CCOCC5)CC4)cc23)s1 [Compound I-62, 4-((1r,4r)-4-(3-(5-methylthiazol-2-yl)-1H-pyrrolo[2,3-b]pyridin-5-yl)cyclohexyl)morpholine]
6 | 0.575 | c1csc(-c2c[nH]c3ncc([C@H]4CC[C@H](N5CCOCC5)CC4)cc23)n1 [Compound I-89, 4-((1r,4r)-4-(3-(thiazol-2-yl)-1H-pyrrolo[2,3-b]pyridin-5-yl)cyclohexyl)morpholine]
7 | 0.238 | O=C(c1nc(-c2c[nH]c3ncc(C4CCCCC4)cc23)cs1)N1CCCCC1 [Compound I-7, [4-(5-Cyclohexyl-1H-pyrrolo[2,3-b]pyridin-3-yl)-thiazol-2-yl]-piperidin-1-yl-methanone]
8 | 0.219 | c1ncc(-c2c[nH]c3ncc([C@H]4CC[C@H](N5CCCOCC5)CC4)cc23)s1 [Compound I-118, 4-((1r,4r)-4-(3-(thiazol-5-yl)-1H-pyrrolo[2,3-b]pyridin-5-yl)cyclohexyl)-1,4-oxazepane]
9 | > 1 | Cc1nc(-c2c[nH]c3ncc([C@H]4CC[C@@H](N5CCCOCC5)CC4)cc23)cs1 [Compound I-76, 4-((1s,4s)-4-(3-(2-methylthiazol-4-yl)-1H-pyrrolo[2,3-b]pyridin-5-yl)cyclohexyl)-1,4-oxazepane]
10 | 0.038 | O=C(c1nc(-c2c[nH]c3ncc(C4=CCCC4)cc23)cs1)N1CCOCC1 [Compound I-3, [4-(5-Cyclopent-1-enyl-1H-pyrrolo[2,3-b]pyridin-3-yl)-thiazol-2-yl]-morpholin-4-yl-methanone]
11 | 0.04 | CN1CCN(C(=O)c2nc(-c3c[nH]c4ncc(C5=CCC(C)(C)C=C5)cc34)cs2)CC1 [Compound I-17, {4-[5-(4,4-Dimethyl-cyclohexa-1,5-dienyl)-1H-pyrrolo[2,3-b]pyridin-3-yl]-thiazol-2-yl}-(4-methyl-piperazin-1-yl)-methanone]
12 | 0.479 | COc1nc(-c2c[nH]c3ncc([C@H]4CC[C@H](N5CCOCC5)CC4)cc23)cs1 [Compound I-120, 4-((1r,4r)-4-(3-(2-methoxythiazol-4-yl)-1H-pyrrolo[2,3-b]pyridin-5-yl)cyclohexyl)morpholine]
13 | 0.089 | c1nc(-c2c[nH]c3ncc(C4CCCCC4)cc23)cs1 [Compound I-49, 4-(5-cyclohexyl-1H-pyrrolo[2,3-b]pyridin-3-yl)thiazole]
14 | 1.45 | Cc1cnc(-c2c[nH]c3ncc([C@H]4CC[C@H](N5CCCOCC5)CC4)cc23)s1 [Compound I-121, 3-(5-methyl-1,3-thiazol-2-yl)-5-[trans-4-(1,4-oxazepan-4-yl)cyclohexyl]-1H-pyrrolo[2,3-b]pyridine]
15 | 1.44 | CN1CCCC1c1nc(-c2c[nH]c3ncc([C@H]4CC[C@@H](N5CCCOCC5)CC4)cc23)cs1 (stereo partly shown) [Compound I-114, 4-((1s,4s)-4-(3-(2-(1-methylpyrrolidin-2-yl)thiazol-4-yl)-1H-pyrrolo[2,3-b]pyridin-5-yl)cyclohexyl)-1,4-oxazepane]
16 | 0.794 | CN1CCC(c2nc(-c3c[nH]c4ncc([C@H]5CC[C@H](N6CCCC6)CC5)cc34)cs2)CC1 [Compound I-98, 2-(1-methylpiperidin-4-yl)-4-(5-((1r,4r)-4-(pyrrolidin-1-yl)cyclohexyl)-1H-pyrrolo[2,3-b]pyridin-3-yl)thiazole]

Row | IC50 [µM] | Structure (SMILES)
17 | 0.955 | CN1CCN(C(=O)c2nc(-c3c[nH]c4ncc([C@H]5CC[C@@H](N6CCOCC6)CC5)cc34)cs2)CC1 [Compound I-32, (4-methylpiperazin-1-yl)(4-(5-((1s,4s)-4-morpholinocyclohexyl)-1H-pyrrolo[2,3-b]pyridin-3-yl)thiazol-2-yl)methanone]
18 | 1.74 | CN1CCCC1c1nc(-c2c[nH]c3ncc([C@H]4CC[C@H](N5CCCC5)CC4)cc23)cs1 (stereo partly shown) [Compound I-111, 2-(1-methylpyrrolidin-2-yl)-4-(5-((1r,4r)-4-(pyrrolidin-1-yl)cyclohexyl)-1H-pyrrolo[2,3-b]pyridin-3-yl)thiazole]
19 | 0.24 | CN1CCC(c2nc(-c3c[nH]c4ncc(C5CCCCC5)cc34)cs2)CC1 [Compound I-11, 5-Cyclohexyl-3-[2-(1-methyl-piperidin-4-yl)-thiazol-4-yl]-1H-pyrrolo[2,3-b]pyridine]
20 | > 1 | Cc1nc(-c2c[nH]c3ncc([C@H]4CC[C@H](N5CCCOCC5)CC4)cc23)cs1 [Compound I-75, 4-((1r,4r)-4-(3-(2-methylthiazol-4-yl)-1H-pyrrolo[2,3-b]pyridin-5-yl)cyclohexyl)-1,4-oxazepane]
21 | 0.302 | CCOc1nc(-c2c[nH]c3ncc([C@H]4CC[C@H](N5CCOCC5)CC4)cc23)cs1 [Compound I-63, 4-((1r,4r)-4-(3-(2-ethoxythiazol-4-yl)-1H-pyrrolo[2,3-b]pyridin-5-yl)cyclohexyl)morpholine]
22 | 3.31 | Cc1nc(-c2c[nH]c3ncc([C@H]4CC[C@H](N5CCCC5)CC4)cc23)cs1 [Compound I-74, 2-methyl-4-(5-((1r,4r)-4-(pyrrolidin-1-yl)cyclohexyl)-1H-pyrrolo[2,3-b]pyridin-3-yl)thiazole]
23 | 1.07 | Cc1nc(-c2c[nH]c3ncc([C@H]4CC[C@H](N5CCCOCC5)CC4)cc23)sc1C [Compound I-123, 3-(4,5-dimethyl-1,3-thiazol-2-yl)-5-[trans-4-(1,4-oxazepan-4-yl)cyclohexyl]-1H-pyrrolo[2,3-b]pyridine]
24 | 0.251 | O=C(c1nc(-c2c[nH]c3ncc(C4=CCCC4)cc23)cs1)N1CCCCC1 [Compound I-4, [4-(5-Cyclopent-1-enyl-1H-pyrrolo[2,3-b]pyridin-3-yl)-thiazol-2-yl]-piperidin-1-yl-methanone]
25 | 1.23 | CN1CCCC1c1nc(-c2c[nH]c3ncc([C@H]4CC[C@H](N5CCCOCC5)CC4)cc23)cs1 (stereo partly shown) [Compound I-113, 4-((1r,4r)-4-(3-(2-(1-methylpyrrolidin-2-yl)thiazol-4-yl)-1H-pyrrolo[2,3-b]pyridin-5-yl)cyclohexyl)-1,4-oxazepane]
26 | 0.269 | CN1CCN([C@H]2CC[C@H](c3cnc4[nH]cc(-c5nc(C(F)(F)F)cs5)c4c3)CC2)CC1 [Compound I-82, 2-(5-((1r,4r)-4-(4-methylpiperazin-1-yl)cyclohexyl)-1H-pyrrolo[2,3-b]pyridin-3-yl)-4-(trifluoromethyl)thiazole]
27 | 0.11 | c1ncc(-c2c[nH]c3ncc([C@H]4CC[C@H](N5CCOCC5)CC4)cc23)s1 [Compound I-60, 4-((1r,4r)-4-(3-(thiazol-5-yl)-1H-pyrrolo[2,3-b]pyridin-5-yl)cyclohexyl)morpholine]
28 | > 2 | CN1CCN([C@H]2CC[C@@H](c3cnc4[nH]cc(-c5csc(C6CCCN6C)n5)c4c3)CC2)CC1 (stereo partly shown) [Compound I-110, 4-(5-((1s,4s)-4-(4-methylpiperazin-1-yl)cyclohexyl)-1H-pyrrolo[2,3-b]pyridin-3-yl)-2-(1-methylpyrrolidin-2-yl)thiazole]
29 | 1.23 | CN1CCCC1c1nc(-c2c[nH]c3ncc([C@H]4CC[C@@H](N5CCOCC5)CC4)cc23)cs1 (stereo partly shown) [Compound I-108, 4-((1s,4s)-4-(3-(2-(1-methylpyrrolidin-2-yl)thiazol-4-yl)-1H-pyrrolo[2,3-b]pyridin-5-yl)cyclohexyl)morpholine]
30 | 1.1 | FC(F)(F)c1csc(-c2c[nH]c3ncc([C@H]4CC[C@@H](N5CCOCC5)CC4)cc23)n1 [Compound I-70, 4-((1s,4s)-4-(3-(4-(trifluoromethyl)thiazol-2-yl)-1H-pyrrolo[2,3-b]pyridin-5-yl)cyclohexyl)morpholine]
31 | > 2 | Cc1nc(-c2c[nH]c3ncc([C@H]4CC[C@@H](N5CCOCC5)CC4)cc23)cs1 [Compound I-56, 4-((1s,4s)-4-(3-(2-methylthiazol-4-yl)-1H-pyrrolo[2,3-b]pyridin-5-yl)cyclohexyl)morpholine]
